In publication PMC4775997, “Imidazopyridazine Inhibitors of Plasmodium falciparum Calcium-Dependent Protein Kinase 1 Also Target Cyclic GMP-Dependent Protein Kinase and Heat Shock Protein 90 To Kill the Parasite at Different Stages of Intracellular Development” (Antimicrobial Agents and Chemotherapy, 2016):
Where two headings read alike, the source gives them in different places.

Tests used:
PfPKG T618Q = target: T1, PfPKG T618Q (Plasmodium falciparum, UniProt Q8I719, T618Q); assay: biochemical; assay type: biochemical; conditions: for IC50: read-out: Enzyme inhibition IC50, PKG T618Q
T1 construct: plasmids (pTrcHisC) encoding full-length PfPKG and PfPKG T618Q with N-terminal His tags; His tag (N); made in house; host or cells: E. coli Rosetta2(DE3)

P. falciparum 3D7 [1] = assay: SYBR green I growth assay, wild-type parasites; assay type: cell-based, Plasmodium falciparum
PfPKG = target: T2, PfPKG (Plasmodium falciparum, UniProt Q8I719); assay: Microfluidic fluorescent shift assay of cGMP-dependent protein kinase activity; assay type: biochemical; conditions: read-out: Enzyme inhibition IC50, PKG
T2 construct: plasmids (pTrcHisC) encoding full-length PfPKG and PfPKG T618Q with N-terminal His tags; His tag (N); made in house; host or cells: E. coli Rosetta2(DE3)

CDPK1 = CDPK1 (Plasmodium falciparum, UniProt P62344); assay: biochemical; assay type: biochemical; conditions: Table S2; read-out: Enzyme inhibition IC50, CDPK1
P. falciparum 3D7 [2] = assay: Microscopic examination of Giemsa-stained smears (stage of action); conditions: for Stage of action (before or after DNA synthesis): Table S1, ring-stage parasites, 10x EC50 for 48 h; for Stage of action: ring stage parasites treated with 10 times the 96-h EC50 for 48 h
3D7 PKG T618Q = assay: microbe, parasite or virus in culture; assay type: cell-based, Plasmodium falciparum; conditions: for EC50: read-out: Parasite inhibition EC50, 3D7 PKG T618Q
[3] = Table S1, single experiment with duplicate samples, or mean of triplicate experiments (SD), read-out: EC50 48 hours
[4] = Table S1, single experiment with duplicate samples, or mean of triplicate experiments (SD), read-out: EC50 96 hours
[5] = Plasmodium falciparum, 3D7, 48 h, read-out: EC50 after treatment for 48 h
[6] = Plasmodium falciparum, 3D7, 96 h, read-out: EC50 96 hours
[7] = Plasmodium falciparum, 3D7, 96 h, read-out: EC50 after treatment for 96 h
[8] = Plasmodium falciparum, 3D7, 96 h, read-out: Parasite inhibition EC50, 3D7
[9] = Plasmodium falciparum, 3D7, 96 h
[10] = Table 2, SYBR green I, 96 h, single experiment, or mean (SD) of duplicate assays

Sequence of CDPK1 (P62344 whole entry): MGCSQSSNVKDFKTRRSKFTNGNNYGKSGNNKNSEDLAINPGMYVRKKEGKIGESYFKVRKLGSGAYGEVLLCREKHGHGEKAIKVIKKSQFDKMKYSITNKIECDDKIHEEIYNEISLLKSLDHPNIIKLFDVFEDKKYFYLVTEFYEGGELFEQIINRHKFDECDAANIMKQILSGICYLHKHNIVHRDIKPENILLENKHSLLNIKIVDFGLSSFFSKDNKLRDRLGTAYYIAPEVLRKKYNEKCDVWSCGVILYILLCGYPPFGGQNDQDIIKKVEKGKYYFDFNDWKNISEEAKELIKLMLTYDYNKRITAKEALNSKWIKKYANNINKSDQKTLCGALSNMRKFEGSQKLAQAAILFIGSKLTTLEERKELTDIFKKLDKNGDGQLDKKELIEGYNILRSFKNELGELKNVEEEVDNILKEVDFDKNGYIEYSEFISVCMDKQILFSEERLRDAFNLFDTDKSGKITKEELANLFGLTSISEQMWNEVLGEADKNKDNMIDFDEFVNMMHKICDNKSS
T1 sequence (Q8I719 whole entry T618Q): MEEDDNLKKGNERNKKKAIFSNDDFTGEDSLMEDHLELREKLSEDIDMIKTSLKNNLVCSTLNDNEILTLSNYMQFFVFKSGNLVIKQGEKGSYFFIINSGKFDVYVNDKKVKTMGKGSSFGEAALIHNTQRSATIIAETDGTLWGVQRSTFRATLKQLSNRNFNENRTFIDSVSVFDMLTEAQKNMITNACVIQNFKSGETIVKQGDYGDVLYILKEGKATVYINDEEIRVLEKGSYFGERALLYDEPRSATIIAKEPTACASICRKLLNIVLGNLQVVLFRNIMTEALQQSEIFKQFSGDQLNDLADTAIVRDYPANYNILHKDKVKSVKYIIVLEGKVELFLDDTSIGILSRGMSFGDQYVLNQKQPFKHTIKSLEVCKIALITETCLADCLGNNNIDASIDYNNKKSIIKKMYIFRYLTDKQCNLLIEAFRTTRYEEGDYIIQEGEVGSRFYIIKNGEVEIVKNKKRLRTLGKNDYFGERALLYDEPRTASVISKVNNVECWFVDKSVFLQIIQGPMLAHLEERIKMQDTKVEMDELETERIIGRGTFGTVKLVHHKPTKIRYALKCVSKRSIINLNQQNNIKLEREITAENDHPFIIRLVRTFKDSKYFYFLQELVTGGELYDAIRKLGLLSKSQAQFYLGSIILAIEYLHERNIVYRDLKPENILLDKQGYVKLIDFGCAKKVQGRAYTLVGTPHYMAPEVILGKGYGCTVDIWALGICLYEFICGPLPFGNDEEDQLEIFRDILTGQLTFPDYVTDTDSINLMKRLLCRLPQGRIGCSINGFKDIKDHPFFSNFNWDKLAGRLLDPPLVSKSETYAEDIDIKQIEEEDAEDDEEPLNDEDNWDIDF

Compound | IC50 (PfPKG T618Q; Table S2) [µM] | EC50 (P. falciparum 3D7 [1]; [3]) [µM] | EC50 (P. falciparum 3D7 [1]; [4]) [µM] | IC50 (PfPKG; Table S2) [µM] | ratio EC5048:EC5096 (P. falciparum 3D7 [1]; Table S1) | other results
CN1CCC(Nc2ccc3ncc(-c4cc(F)c(Nc5ccccn5)c(F)c4)n3n2)CC1 [Compound 2] | 12.8 | 1.28 | 1.04 | 0.069 |  | 
CN1CCC(Nc2ccc3ncc(-c4ccc(Nc5cnccn5)cc4)n3n2)CC1 [Compound 3] |  | 0.76 | 0.61 |  | 1.3 | 
CC(C)CCNc1ccc(-c2cnc3ccc(N4CCC(N(C)C)CC4)nn23)cn1 [Compound 5] |  | 0.54 | 0.39 |  | 1.4 | 
CC(C)CCNc1ccc(-c2cnc3ccc(NC4CCN(C)C4)nn23)cn1 (centres unmarked) [Compound 6] |  | 0.59 | 0.42 |  | 1.4 | 
CN1CCC(Nc2ccc3ncc(-c4cc(F)c(Nc5ncccc5F)c(F)c4)n3n2)CC1 [Compound 8] | 64.6 | 0.99 | 0.66 | 0.237 | 1.5 | Selectivity PKG T618Q/PKG (PfPKG T618Q; Table S2): 272; IC50 (CDPK1): 0.017 µM
NC1CCC(Nc2ccc3ncc(-c4ccc(Nc5ncccc5F)cc4)n3n2)CC1 (centres unmarked) [Compound 9] | 16.8 | 0.62 | 0.4 | 0.048 |  | 
c1ccc(-n2cc(-c3cnc4ccc(NC5CCNCC5)nn34)cn2)cc1 [Compound 10] |  | 0.72 | 0.46 |  | 1.6 | 
CC(C)CCNc1ccc(-c2cnc3ccc(NC4CCNCC4)nn23)cn1 [Compound 11] | 256 | 0.96 | 0.6 | 0.256 | 1.6 | Selectivity PKG T618Q/PKG (PfPKG T618Q; Table S2): 1000; IC50 (CDPK1): 0.015 µM
CC(C)CCNc1ccc(-c2cnc3ccc(N4CCC(N)CC4)nn23)cn1 [Compound 12] |  | 0.41 | 0.25 |  | 1.6 | 
Fc1cccnc1Nc1ccc(-c2cnc3ccc(NC4CCNCC4)nn23)cc1 [Compound 13] | 3.68 | 1.25 | 0.76 | 0.162 | 1.7 | Selectivity PKG T618Q/PKG (PfPKG T618Q; Table S2): 23; IC50 (CDPK1): 0.014 µM
CCCCNc1ccc(-c2cnc3ccc(N4CCN(C)CC4)nn23)cn1 [Compound 14] |  | 2.1 | 1.18 |  | 1.8 | 
CN1CCC(Nc2ccc3ncc(-c4cnc(Nc5cnccn5)c(F)c4)n3n2)CC1 [Compound 15] | 51.3 | 1.74 | 0.96 | 0.249 | 1.9 | Selectivity PKG T618Q/PKG (PfPKG T618Q; Table S2): 206; IC50 (CDPK1): 0.02 µM
CN1CCC(Nc2ccc3ncc(-c4ccc(Nc5ccccn5)c(F)c4)n3n2)CC1 [Compound 16] | 10.6 |  |  | 0.088 |  | 
CN1CCC(Nc2ccc3ncc(-c4ccc(Nc5ncccc5F)nc4)n3n2)CC1 [Compound 17] | 12.1 | 1.15 | 0.58 | 0.118 |  | 
CN1CCC(Nc2ccc3ncc(-c4ccc(Nc5ncccc5F)cc4)n3n2)CC1 [Compound 18] | 15.7 | 1.22 | 0.6 | 0.404 |  | 
CCCCNc1ccc(-c2cnc3ccc(N4CCC(N)CC4)nn23)cn1 [Compound 19] |  | 0.57 | 0.26 |  | 2.2 | 
Fc1cc(-c2cnc3ccc(NC4CCNCC4)nn23)ccc1Nc1ccccn1 [Compound 21] | 3.77 | 1.63 | 0.69 | 0.087 | 2.4 | Selectivity PKG T618Q/PKG (PfPKG T618Q; Table S2): 44; IC50 (CDPK1): 0.01 µM
CC(C)CCNc1ncc(-c2cnc3ccc(NC4CCN(C)CC4)nn23)cn1 [Compound 23] | 4.76 | 2.49 | 0.99 | 0.16 | 2.5 | Selectivity PKG T618Q/PKG (PfPKG T618Q; Table S2): 30; IC50 (CDPK1): 0.014 µM
Fc1cccnc1Nc1ccc(-c2cnc3ccc(NC4CCNCC4)nn23)cn1 [Compound 24] | 1.25 | 2.45 | 0.71 | 0.062 | 3.4 | Selectivity PKG T618Q/PKG (PfPKG T618Q; Table S2): 20; IC50 (CDPK1): 0.011 µM
Fc1cc(-c2cnc3ccc(NC4CCNCC4)nn23)cnc1Nc1ccccn1 [Compound 25] | 9.93 | 1.96 | 0.54 | 0.054 | 3.6 | Selectivity PKG T618Q/PKG (PfPKG T618Q; Table S2): 182; IC50 (CDPK1): 0.013 µM
Fc1cccnc1Nc1ncc(-c2cnc3ccc(NCCN4CCNCC4)nn23)cn1 [Compound 30] |  | 0.31 | 0.05 |  | 6.0 | 
CN1CCC(Nc2ccc3ncc(-c4cnc(Nc5ncccc5F)nc4)n3n2)CC1 [Compound 33] | 10 |  | 0.03 | 0.005 |  | 
c1nc(N2CCCCC2)ncc1-c1cnc2ccc(NC3CCNCC3)nn12 [Compound 34] |  |  | 1.18 |  |  | 
NC1CCC(Nc2ccc3ncc(-c4cnc(Nc5ncccc5F)nc4)n3n2)CC1 (centres unmarked) [Compound 36] |  |  |  |  |  | Stage of action (before or after DNA synthesis) (P. falciparum 3D7 [2]): late schizont; Stage of action (P. falciparum 3D7 [2]): Late schizont; EC50 (P. falciparum 3D7 [1]; [5]): > 1000 µM; EC50 (P. falciparum 3D7 [1]; [6]): 0.02 µM; EC50 (P. falciparum 3D7 [1]; [7]): 0.023 µM; EC50 (P. falciparum 3D7 [1]; [8]): 0.034 µM; EC50 after treatment for 48 h (P. falciparum 3D7 [1]; SYBR green I, 48 h incubation, mean of three independent experiments (SD)): not able to be determined with any accuracy; EC50 (3D7 PKG T618Q; [9]): 0.901 µM
CC(C)CCNc1ncc(-c2cnc3ccc(NC4CCC(N)CC4)nn23)cn1 (centres unmarked) [Compound 37] |  |  | 0.65 |  |  | 
Fc1cccnc1Nc1ncc(-c2cnc3ccc(NC4CCC(N5CCCC5)CC4)nn23)cn1 (centres unmarked) [Compound 39] |  |  |  |  |  | Stage of action (before or after DNA synthesis) (P. falciparum 3D7 [2]): late schizont; Stage of action (P. falciparum 3D7 [2]): Late schizont; IC50 (PfPKG T618Q; Table 2, ATP at Km 90 μM): 25.5 µM; EC50 (P. falciparum 3D7 [1]; SYBR green I, 48 h incubation, mean of three independent experiments (SD), read-out: EC50 after treatment for 48 h): > 1000 µM; EC50 (P. falciparum 3D7 [1]; SYBR green I, 96 h incubation, mean of three independent experiments (SD), read-out: EC50 after treatment for 96 h): 0.02 µM; EC50 (P. falciparum 3D7 [1]; Table 2, SYBR green I, 96 h, single experiment, or mean (SD) of duplicate assays, read-out: Parasite inhibition EC50, 3D7): 0.034 µM; IC50 (PfPKG; Table 2, ATP at Km 20 μM): 0.002 µM; EC50 (3D7 PKG T618Q; [10]): 0.982 µM; Decrease in potency against the PKG T618Q variant parasite (3D7 PKG T618Q; versus 3D7 WT, 96 h SYBR green I): 29 fold
c1cnc(Nc2ncc(-c3cnc4ccc(NC5CCNCC5)nn34)cn2)cn1 [Compound 40] |  |  | 1.23 |  |  | 
Fc1cccnc1Nc1ncc(-c2cnc3ccc(NC4CCC(N5CCOCC5)CC4)nn23)cn1 (centres unmarked) [Compound 41] |  |  |  |  |  | Stage of action (before or after DNA synthesis) (P. falciparum 3D7 [2]): late schizont; Developmental arrest seen in smears (P. falciparum 3D7 [2]; parasites about 21 h after invasion, 48 h at 10 times the EC50 determined by FACS (compound C 0.3 μM, compound D 4 μM)): arrested prior to merozoite egress; Stage of action (P. falciparum 3D7 [2]): Late schizont; EC50 (P. falciparum 3D7 [1]; [5]): > 1000 µM; EC50 (P. falciparum 3D7 [1]; [6]): 0.04 µM; EC50 (P. falciparum 3D7 [1]; [7]): 0.037 µM; EC50 (P. falciparum 3D7 [1]; [8]): 0.042 µM; EC50 (3D7 PKG T618Q; [9]): 0.923 µM
CC(C)CCNc1ccc(-c2cnc3ccc(NC4CCN(C)CC4)nn23)cn1 [Compound 43] |  |  |  |  |  | EC50 (P. falciparum 3D7 [1]; Table S2, 96 h, read-out: Parasite inhibition EC50, 3D7): 0.079 µM; EC50 (3D7 PKG T618Q; [10]): 0.093 µM
